# Test system: patients with postpartum depression (PPD)
# Test: Clinical trial, inhaled 5-MeO-DMT individualized dosing regimen in postpartum depression (one patient so far)
# Experimental: The single-arm, open-label clinical trial will involve 15 adult female patients with clinically diagnosed postpartum depression (PPD).
# The second dose (12 mg) will only be administered if: • a. […] The 6 mg dose was safe and well-tolerated according to the investigator, • c. Any psychoactive effects (PsE) of the prior dose have subsided, and • d. Pre-dose vital parameters and forced expiratory volume in one second (FEV1) are in normal range, or if outside of the normal range, are not clinically significant according to the investigator. • 3. Similarly, a third dose (18 mg) will only be administered if: • a. […] The 12 mg dose was safe and well-tolerated according to the investigator, and • c. Any PsE of the prior dose have subsided, and • d. Pre-dose vital parameters and forced expiratory volume in one second (FEV1) are in normal range, or if outside of the normal range, are not clinically significant according to the investigator.
# The patients will be assessed for a peak psychedelic experience (based on a patient-scored visual analogue scale, the PE scale), sedation, and other endpoints after dosing. Follow-up visits are planned for Day 1, and Day 7 after the dosing day.
compound,measurement,setting,value
COc1ccc2[nH]cc(CCN(C)C)c2c1 [5-MeO-DMT],standard criteria for MADRS response (at least 50% improvement) and MADRS remission (total score equal or less than 10),,fulfilled
same,tolerability of the inhalation procedure,,well tolerated with no inhalation-related adverse events
same,MADRS Concentration Difficulties improvement,"2 hr, baseline 0",0
same,MADRS Concentration Difficulties score,"2 hr, baseline 0",0
same,MADRS Reduced appetite improvement,"2 hr, baseline 0",0
same,MADRS Reduced appetite score,"2 hr, baseline 0",0
same,MADRS Suicidal Thoughts improvement,"2 hr, baseline 0",0
same,MADRS Suicidal Thoughts score,"2 hr, baseline 0",0
same,MADRS Inability to Feel improvement,"2 hr, baseline 3",3
same,MADRS Inability to Feel score,"2 hr, baseline 3",0
same,MADRS Lassitude improvement,"2 hr, baseline 3",3
same,MADRS Lassitude score,"2 hr, baseline 3",0
same,MADRS Pessimistic Thoughts improvement,"2 hr, baseline 4",4
same,MADRS Pessimistic Thoughts score,"2 hr, baseline 4",0
same,MADRS Reported sadness improvement,"2 hr, baseline 4",4
same,MADRS Reported sadness score,"2 hr, baseline 4",0
same,MADRS Apparent sadness improvement,"2 hr, baseline 5",5
same,MADRS Apparent sadness score,"2 hr, baseline 5",0
same,MADRS Inner Tension improvement,"2 hr, baseline 5",5
same,MADRS Inner Tension score,"2 hr, baseline 5",0
same,MADRS Reduced Sleep improvement,"2 hr, baseline 5",0
same,MADRS Reduced Sleep score,"2 hr, baseline 5",5
same,reported adverse events (cramping left abdominal pain and headache),Day 0,"mild, short-lasting and resolved spontaneously"
same,MADRS Concentration Difficulties improvement,"Day 1, baseline 0",0
same,MADRS Concentration Difficulties score,"Day 1, baseline 0",0
same,MADRS Reduced appetite improvement,"Day 1, baseline 0",0
same,MADRS Reduced appetite score,"Day 1, baseline 0",0
same,MADRS Suicidal Thoughts improvement,"Day 1, baseline 0",0
same,MADRS Suicidal Thoughts score,"Day 1, baseline 0",0
same,BPRS Blunted affect improvement,"Day 1, baseline 1",0
same,BPRS Blunted affect score,"Day 1, baseline 1",1
same,BPRS Conceptual disorganization improvement,"Day 1, baseline 1",0
same,BPRS Conceptual disorganization score,"Day 1, baseline 1",1
same,BPRS Disorientation improvement,"Day 1, baseline 1",0
same,BPRS Disorientation score,"Day 1, baseline 1",1
same,BPRS Grandiosity improvement,"Day 1, baseline 1",0
same,BPRS Grandiosity score,"Day 1, baseline 1",1
same,BPRS Hallucinatory behaviour improvement,"Day 1, baseline 1",0
same,BPRS Hallucinatory behaviour score,"Day 1, baseline 1",1
same,BPRS Hostility improvement,"Day 1, baseline 1",0
same,BPRS Hostility score,"Day 1, baseline 1",1
same,BPRS Mannerisms and Posturing improvement,"Day 1, baseline 1",0
same,BPRS Mannerisms and Posturing score,"Day 1, baseline 1",1
same,BPRS Motor retardation improvement,"Day 1, baseline 1",0
same,BPRS Motor retardation score,"Day 1, baseline 1",1
same,BPRS Suspiciousness improvement,"Day 1, baseline 1",0
same,BPRS Suspiciousness score,"Day 1, baseline 1",1
same,BPRS Uncooperativeness improvement,"Day 1, baseline 1",0
same,BPRS Uncooperativeness score,"Day 1, baseline 1",1
same,BPRS Unusual Thought Content improvement,"Day 1, baseline 1",0
same,BPRS Unusual Thought Content score,"Day 1, baseline 1",1
same,BPRS Excitement improvement,"Day 1, baseline 2",1
same,BPRS Excitement score,"Day 1, baseline 2",1
same,MADRS Inability to Feel improvement,"Day 1, baseline 3",3
same,MADRS Inability to Feel score,"Day 1, baseline 3",0
same,MADRS Lassitude improvement,"Day 1, baseline 3",3
same,MADRS Lassitude score,"Day 1, baseline 3",0
same,MADRS Pessimistic Thoughts improvement,"Day 1, baseline 4",4
same,MADRS Pessimistic Thoughts score,"Day 1, baseline 4",0
same,MADRS Reported sadness improvement,"Day 1, baseline 4",4
same,MADRS Reported sadness score,"Day 1, baseline 4",0
same,BPRS Emotional withdrawal improvement,"Day 1, baseline 5",4
same,BPRS Emotional withdrawal score,"Day 1, baseline 5",1
same,MADRS Apparent sadness improvement,"Day 1, baseline 5",5
same,MADRS Apparent sadness score,"Day 1, baseline 5",0
same,MADRS Inner Tension improvement,"Day 1, baseline 5",5
same,MADRS Inner Tension score,"Day 1, baseline 5",0
same,MADRS Reduced Sleep improvement,"Day 1, baseline 5",5
same,MADRS Reduced Sleep score,"Day 1, baseline 5",0
same,BPRS Depressive Mood improvement,"Day 1, baseline 6",5
same,BPRS Depressive Mood score,"Day 1, baseline 6",1
same,BPRS Guilt feelings improvement,"Day 1, baseline 6",5
same,BPRS Guilt feelings score,"Day 1, baseline 6",1
same,BPRS Somatic Concern improvement,"Day 1, baseline 6",5
same,BPRS Somatic Concern score,"Day 1, baseline 6",1
same,BPRS Tension improvement,"Day 1, baseline 6",5
same,BPRS Tension score,"Day 1, baseline 6",1
same,BPRS Anxiety improvement,"Day 1, baseline 7",6
same,BPRS Anxiety score,"Day 1, baseline 7",1
same,BIMF item 2 (I feel rested) score,"Day 7, Day 0 score 0",2
same,"BIMF item 19 (As time goes on, I am getting better at taking care of my baby) score","Day 7, Day 0 score 0",1
same,BIMF item 18 (Anxiety or worry often interferes with my mothering ability) score,"Day 7, Day 0 score 2",5
same,BIMF item 13 (I am taking good care of my physical needs) score,"Day 7, Day 0 score 4",5
same,BIMF item 4 (My baby and I understand each other) score,"Day 7, Day 0 score 5",5
same,BIMF item 5 (I am able to relax and enjoy time with my baby) score,"Day 7, Day 0 score 5",6
same,BIMF item 9 (I am getting enough encouragement from other people) score,"Day 7, Day 0 score 5",6
same,BIMF item 10 (I trust my own feelings (instincts) when it comes to taking care of my baby) score,"Day 7, Day 0 score 5",6
same,BIMF item 15 (My baby and I are getting into a routine) score,"Day 7, Day 0 score 5",6
same,BIMF item 17 (I am able to take care of my baby and my other responsibilities) score,"Day 7, Day 0 score 5",5
same,BIMF item 1 (I am a good mother) score,"Day 7, Day 0 score 6",6
same,BIMF item 3 (I am comfortable with the way I've chosen to feed my baby) score,"Day 7, Day 0 score 6",6
same,BIMF item 6 (There are people in my life that I can trust to care for my baby when I need a break) score,"Day 7, Day 0 score 6",6
same,BIMF item 8 (I am getting enough adult interaction) score,"Day 7, Day 0 score 6",6
same,BIMF item 12 (I am taking good care of my baby's physical needs) score,"Day 7, Day 0 score 6",6
same,BIMF item 14 (I make good decisions about my baby's health and well being) score,"Day 7, Day 0 score 6",6
same,BIMF item 20 (I am satisfied with the job I am doing as a new mother) score,"Day 7, Day 0 score 6",5
same,MADRS Concentration Difficulties improvement,"Day 7, baseline 0",0
same,MADRS Concentration Difficulties score,"Day 7, baseline 0",0
same,MADRS Reduced appetite improvement,"Day 7, baseline 0",0
same,MADRS Reduced appetite score,"Day 7, baseline 0",0
same,MADRS Suicidal Thoughts improvement,"Day 7, baseline 0",0
same,MADRS Suicidal Thoughts score,"Day 7, baseline 0",0
same,BPRS Blunted affect improvement,"Day 7, baseline 1",0
same,BPRS Blunted affect score,"Day 7, baseline 1",1
same,BPRS Conceptual disorganization improvement,"Day 7, baseline 1",0
same,BPRS Conceptual disorganization score,"Day 7, baseline 1",1
same,BPRS Disorientation improvement,"Day 7, baseline 1",0
